From US7732480B2, “Bicyclic compounds as modulators of androgen receptor function and method” (Bristol-Myers Squibb Company, priority 2004, dated 2010)

How the values were obtained:
[1] = biological target: T1, AR (Rattus norvegicus, UniProt P15207); conditions: castrated rats
T1 sequence (P15207 1-902): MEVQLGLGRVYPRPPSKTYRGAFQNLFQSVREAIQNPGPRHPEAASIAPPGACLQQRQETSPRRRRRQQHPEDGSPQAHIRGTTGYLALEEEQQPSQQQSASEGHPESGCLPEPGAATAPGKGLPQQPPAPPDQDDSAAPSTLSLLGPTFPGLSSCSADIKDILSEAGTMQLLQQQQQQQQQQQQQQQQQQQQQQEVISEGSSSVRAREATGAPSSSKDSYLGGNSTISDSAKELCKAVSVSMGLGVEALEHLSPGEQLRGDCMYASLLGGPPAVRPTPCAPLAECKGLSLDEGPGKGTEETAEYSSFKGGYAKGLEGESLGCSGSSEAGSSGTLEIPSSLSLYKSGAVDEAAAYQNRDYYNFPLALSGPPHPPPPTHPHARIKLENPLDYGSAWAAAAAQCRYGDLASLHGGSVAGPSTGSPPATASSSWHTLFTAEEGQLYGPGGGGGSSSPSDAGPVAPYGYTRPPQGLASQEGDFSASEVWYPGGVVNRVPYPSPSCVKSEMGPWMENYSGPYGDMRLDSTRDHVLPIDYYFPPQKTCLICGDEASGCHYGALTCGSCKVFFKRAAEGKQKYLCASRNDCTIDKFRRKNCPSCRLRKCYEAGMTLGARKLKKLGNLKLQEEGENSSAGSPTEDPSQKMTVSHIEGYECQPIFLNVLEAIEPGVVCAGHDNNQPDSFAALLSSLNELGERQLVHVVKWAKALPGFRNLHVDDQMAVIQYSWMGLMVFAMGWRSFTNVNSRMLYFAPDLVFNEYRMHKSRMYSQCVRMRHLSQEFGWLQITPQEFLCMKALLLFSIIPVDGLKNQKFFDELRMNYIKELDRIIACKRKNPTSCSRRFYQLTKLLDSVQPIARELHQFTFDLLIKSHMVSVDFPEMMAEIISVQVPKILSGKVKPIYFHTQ
Description: The activity of compounds of the present invention as AR agonists was investigated in an immature male rat model, a recognized test of anabolic effects in muscle and sustaining effects in sex organs for a given compound, as described in L. G. Hershberger et al., Proc. Soc. […] Biol. Med., 83, 175 (1953); B. L. Beyler et al, “Methods for evaluating anabolic and catabolic agents in laboratory animals”, J. Amer. Med. Women's Ass., 23, 708 (1968); H. Fukuda et al., “Investigations of the levator ani muscle as an anabolic steroid assay”, Nago Dai. Yak. Ken. Nem. 14, 84 (1966) the disclosures of which are herein incorporated by reference.
The basis of this assay lies in the well-defined action of androgenic agents on the maintenance and growth of muscle tissues and sexual accessory organs in animals and man. […] J. Anat. […] Ital. Biol. Sper. […] II. […] Ital. Biol. Sper. 42, 1600 (1966); A. Boris et al., Steroids 15, 61 (1970). As described above, the effects of androgens on maintenance of male sexual accessory organs, such as the prostate and seminal vesicles, is well described. Castration results in rapid involution and atrophy of the prostate and seminal vesicles. This effect can be reversed by exogenous addition of androgens. […]

[2] = biological target: glucocorticoid receptor (Homo sapiens, UniProt P04150); conditions: concentration ≦10 μM; A549 cells, 10 ng/mL PMA, 7 h
Sequence of glucocorticoid receptor (P04150 whole entry): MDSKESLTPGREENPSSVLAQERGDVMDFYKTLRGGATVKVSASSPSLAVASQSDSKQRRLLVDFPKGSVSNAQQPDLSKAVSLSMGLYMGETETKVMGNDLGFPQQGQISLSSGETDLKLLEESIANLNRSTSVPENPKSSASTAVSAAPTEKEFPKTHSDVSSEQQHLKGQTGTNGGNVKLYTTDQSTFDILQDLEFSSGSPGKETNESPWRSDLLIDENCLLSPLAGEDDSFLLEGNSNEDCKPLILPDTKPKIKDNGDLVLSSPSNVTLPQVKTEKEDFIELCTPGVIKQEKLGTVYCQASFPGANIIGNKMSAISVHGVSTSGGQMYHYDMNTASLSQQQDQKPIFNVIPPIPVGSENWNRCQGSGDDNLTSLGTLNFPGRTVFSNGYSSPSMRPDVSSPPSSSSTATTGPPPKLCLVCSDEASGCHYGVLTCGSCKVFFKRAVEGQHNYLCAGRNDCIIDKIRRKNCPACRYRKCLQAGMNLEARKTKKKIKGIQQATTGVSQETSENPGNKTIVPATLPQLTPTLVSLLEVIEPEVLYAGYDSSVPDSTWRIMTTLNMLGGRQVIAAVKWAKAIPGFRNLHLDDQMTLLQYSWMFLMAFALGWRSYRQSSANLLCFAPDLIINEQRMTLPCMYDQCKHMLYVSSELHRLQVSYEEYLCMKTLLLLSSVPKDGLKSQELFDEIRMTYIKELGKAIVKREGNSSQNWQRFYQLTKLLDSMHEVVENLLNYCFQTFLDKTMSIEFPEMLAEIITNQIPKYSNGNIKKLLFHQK
Protocol: The AP-1 assay is a cell-based luciferase reporter assay. A549 cells, which contain endogenous glucocorticoid receptor, were stably transfected with an AP-1 DNA binding site attached to the luciferase gene. Cells are then grown in RPMI+10% fetal calf serum (charcoal-treated)+Penicillin/Streptomycin with 0.5 mg/mL geneticin. Cells are plated the day before the assay at approximately 40000 cells/well. On assay day, the media is removed by aspiration and 20 μL assay buffer (RPMI without phenol red+10% FCS (charcoal-treated)+Pen/Strep) is added to each well. At this point either 20 μL assay buffer (control experiments), the compounds of the present invention (“test compounds”) (dissolved in DMSO and added at varying concentrations) or dexamethasome (100 nM in DMSO, positive control) are added to each well. The plates are then pre-incubated for 15 min at 37° C., followed by stimulation of the cells with 10 ng/mL PMA. The plates are then incubated for 7 h at 37° C. after which 40 μL luciferase substrate reagent is added to each well. Activity is measured by analysis in a luminometer as compared to control experiments treated with buffer or dexamethasome.

[3] = biological target: wild type AR; conditions: read-out: Kd for [3H]-DHT; MDA 453 cells (wild type AR), Scatchard analysis
Description: For the saturation analysis, the difference between the total binding and the non-specific binding, was defined as specific binding. […] See e.g. D. Rodbard, Mathematics and statistics of ligand assays: an illustrated guide: In: J. Langon and J. J. Clapp, eds., Ligand Assay, Masson Publishing U.S.A., Inc., New York, pp. 45-99, (1981), the disclosure of which is herein incorporated by reference.
Two replicates were used for each sample.
[formula] After correcting for non-specific binding, IC50 values were determined. […] C2C12 Mouse Myoblast Transactivation Assay

CCC(=O)O[C@H]1CC[C@H]2[C@@H]3CCC4=CC(=O)CC[C@]4(C)[C@H]3CC[C@]12C [TP, testosterone propionate]
EC50 (increase in organ weight) [1]: ~0.03 mg | potency relative to free T ([1]; organ weight increase): 10-30 fold

C[C@@H]1C[C@H]2[C@@H]3CCC4=CC(=O)C=C[C@]4(C)[C@@]3(F)[C@@H](O)C[C@]2(C)[C@@]1(O)C(=O)CO [dexamethasone]
% inhibition of the AP-1 reporter system vs buffer control with PMA [2]: 65%

tritiated dihydrotestosterone [[^3H]-DHT]
Kd [3]: 0.7 nM
